Reference: article PMC4894409 (Scientific Reports, 2015)
Where a name gives a salt, the structure may show the parent alone. Read-outs that look alike come from different tables or passages of the source.

Legend:
mice [1] = assay: FS test after AMPT, PCPA, PRAZ or WAY pretreatment (mechanism of antidepressant-like effect of D1); assay type: in vivo, Male Swiss mice; details: AMPT 100, PCPA 100, PRAZ 1 or WAY 0.3 mg/kg i.p. + Vehicle versus SAL + Vehicle, p > 0.05
Experimental: Mice were pretreated (i.p) with saline solution or AMPT 100 mg/kg (catecholamine depletor) 4 h prior to the oral administration of vehicle 10 mL/kg or D1 5 mg/kg. […] In a separate experiment, pretreatment (i.p) of mice with saline solution or PCPA 100 mg/kg (serotonin depletor) for four consecutive days prior to oral administration of vehicle or D1 5 mg/kg was used to investigate effect of serotonin depletion on antidepressant-like activity of this OAD. […] In all the four experiments, oral administration of vehicle or D1 5 mg/kg was followed by FS test (60 min interval between p.o. treatment and behavioural testing).

[2] = system: dopamine, noradrenaline and serotonin levels; details: cited from earlier work
mice [3] = assay: Forced swimming (FS) test; assay type: in vivo, Male Swiss mice
Experimental: (§1) Male Swiss mice (weighing between 25–30 g; 6–8 weeks old), provided by Central Animal House of the Federal University of Goiás, were used in all behavioural models. The experimental animals were kept in an intra-laboratory facility cage (32 × 18 × 16 cm) under controlled environmental conditions (23 ± 1 °C, 12 hr light-dark cycle) with access to food and water ad libitum. The experimental protocols (number 104/08) were approved by Ethical Committee of Federal University of Goiás in accordance to the international laws on the care and use of laboratory animals.
In the FS model, mice were randomly divided into 5 groups [control (vehicle), 3 different doses of OAD and IMI]. Mice were exposed to a modified version of FS test[48] after oral administration of vehicle, OAD (5, 10 or 20 mg/kg) or IMI 15 mg/kg. FS apparatus is a cylindrical water container (42 cm in height, 18 cm in diameter) filled with water up to 30 cm (total volume ( [drawing 1] of 7635.06 cm^3 at 24 ± 2 °C). In this model, the initial escape-directed behaviour like swimming and climbing by mouse are generally followed with a relatively passive and immobile posture. The container was cleaned with 10% ethanol solution prior to the exposure of naïve mouse. This test session (6-min duration) was videotaped and the swimming and immobility time was later scored and analyzed.

mice [4] = assay: Open field (OF) test; assay type: in vivo, Male Swiss mice; details: for other parameters of the OF test: 5, 10, 20 mg/kg p.o., parameters not named as changed, p > 0.05
Experimental: as §1
In the OF, animals were randomly divided into six groups [control (vehicle), 3 different doses of OAD, DZP 1 or 5 mg/kg]. Animals were treated with vehicle, OAD (5, 10 or 20 mg/kg, p.o), DZP (1 or 5 mg/kg, p.o) as described in our previous work[7][49], and placed in a circular open field [base area ( [drawing 2] ) = 62.80 cm^2 which is divided into 8 equal sectors enclosed in a 50 cm high wooden wall]. The test session (5-min duration) was videotaped in a sound-proof experimental room. Parameters like total crossing, freezing time, number of grooming and rearing activity, crossing at the centre and time spent at the centre of the open field were observed and scored.

5-HT1A receptor = target: T1, 5-HT1A receptor (Mus musculus, UniProt Q64264); assay: [35S]GTPγS binding to mice hippocampal membranes; assay type: biochemical; details: for Emax: read-out: Intrinsic activity (Emax ± SEM in %)
T1 construct: The hippocampi of mice were dissected and homogenized in 5 volumes of ice-cold buffer; from tissue; host or cells: mouse hippocampus membranes
T1 sequence (Q64264 1-421): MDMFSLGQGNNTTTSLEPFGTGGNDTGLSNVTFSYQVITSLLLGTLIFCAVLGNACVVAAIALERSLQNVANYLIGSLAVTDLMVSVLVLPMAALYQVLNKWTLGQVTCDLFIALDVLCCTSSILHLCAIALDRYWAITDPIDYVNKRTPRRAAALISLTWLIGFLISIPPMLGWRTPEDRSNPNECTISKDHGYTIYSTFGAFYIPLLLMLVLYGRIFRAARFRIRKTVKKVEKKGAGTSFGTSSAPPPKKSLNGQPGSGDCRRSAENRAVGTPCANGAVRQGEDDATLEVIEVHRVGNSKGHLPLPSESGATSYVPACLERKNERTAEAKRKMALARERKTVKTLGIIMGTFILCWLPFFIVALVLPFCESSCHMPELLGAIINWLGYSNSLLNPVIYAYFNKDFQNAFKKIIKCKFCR
Experimental: The hippocampi of mice were dissected and homogenized in 5 volumes of ice-cold buffer (25 mM Tris-HCl, 0.5 mM dithiothreitol, and 0.5 mM EGTA, pH 7.4). The homogenate was centrifuged (1,000 × g for 5 min at 4 °C) and the resultant supernatant was removed. The remaining pellet was resuspended in buffer, homogenized, and centrifuged. The two supernatants obtained were combined and centrifuged at […] at 4 °C and the pellets were resuspended in membrane preparation buffer. The volumes were adjusted prior to the determination of protein concentration by Bradford method[56] and stored at −80 °C until required. […] The reactions were initiated by the addition of 25 μl [^35S]-GTPγS, followed by a 20 min incubation at 20 °C. The reactions were terminated by rapid filtration. The filters were placed in liquid scintillation cocktail in counting vials. The liquid scintillation spectroscopy was used to measure the radioactivity bound to the filter paper after 10 hour.

[5] = previous study; cited from earlier work
[6] = 20 mg/kg p.o., vs vehicle, p < 0.05
[7] = 100 mg/kg i.p. for four consecutive days

## COc1cc2nc(N3CCN(C(=O)c4ccco4)CC3)nc(N)c2cc1OC [PRAZ, prazosin, reference compound]
Mice [1]
  animal behaviour (swimming time) after pretreatment prior to vehicle: did not alter animal behaviour

## CC(N)(Cc1ccc(O)cc1)C(=O)O (stereo not drawn) [AMPT, α-methyl-p-tyrosine]
[2]; mice
  levels of serotonin: without affecting
  reduction of noradrenaline levels: 53%
[2]; mice, tyrosine hydroxylase inhibitor
  reduction of dopamine levels: 57%
Mice [1]
  animal behaviour (swimming time) after pretreatment prior to vehicle: did not alter animal behaviour

## C=C(C)C(=O)O[C@H]1CC[C@]2(C)[C@H]3CC=C4[C@@H]5CC(C)(C)CC[C@]5(C(=O)O)CC[C@@]4(C)[C@]3(C)CC[C@H]2C1(C)C [D2, Oleanolic acid methacrylate]
Mice [3]; [6]
  immobility time in the FS test: reduction
  swimming time in the FS test: significant increase
Mice [4]; 20 mg/kg p.o., vs vehicle
  total crossing in the OF: increase
Mice [4]
  other parameters of the OF test: not altered
Mice [4]; 5, 10 and 20 mg/kg p.o., vs vehicle
  time spent at the centre of the OF: increase
Mice [4]; 10 and 20 mg/kg p.o., vs vehicle
  crossing at the centre of the OF: increase

## CN(C)CCCN1c2ccccc2CCc2ccccc21 [IMI, imipramine, reference compound]
Mice [3]; 15 mg/kg p.o.
  effect in FS test: antidepressant-like effect

## CN1C(=O)CN=C(c2ccccc2)c2cc(Cl)ccc21 [DZP, Diazepam, reference compound]
Mice [4]; 1 mg/kg p.o.
  effect in the OF test: anxiolytic
Mice [4]; 5 mg/kg p.o.
  effect in the OF test: sedative like effect

## N[C@@H](Cc1ccc(Cl)cc1)C(=O)O (racemic) [PCPA, p-chlorophenylalanine]
[2]; [7]
  depletion of endogenous serotonin content: about 60%
  noradrenaline or dopamine levels: without altering
Mice [1]
  animal behaviour (swimming time) after pretreatment prior to vehicle: did not alter animal behaviour

## COc1ccccc1N1CCN(CCN(C(=O)C2CCCCC2)c2ccccn2)CC1 [WAY, N-{2-[4-(2-methoxyphenyl)-1-piperazinyl]ethyl}-N-2-pyridinylcyclohexane carboxamide, reference compound]
Mice [1]
  animal behaviour (swimming time) after pretreatment prior to vehicle: did not alter animal behaviour

## Oleanolic acid ethyl fumarate [D4]
Mice [3]; [6]
  swimming time in the FS test: significant reduction
Mice [3]; 5, 10, 20 mg/kg p.o., ANOVA
  immobility time in the FS test: without changes
Mice [4]; 20 mg/kg p.o., vs vehicle
  freezing time in the OF: increase
  total crossing in the OF: reduction

## O=C1CC2(CCCC2)CC(=O)N1CCCCN1CCN(c2ncccn2)CC1 [Buspirone, buspirone]
5-HT1A receptor; mice hippocampal membranes, read-out: Agonist potency (pEC50 ± SEM) (converted)
  EC50: 251 nM
5-HT1A receptor; percentage of that produced by 10 μM (+)8-OH-DPAT
  Emax: 33 ± 1%

## CC1(C)CC[C@]2(C(=O)O)CC[C@]3(C)C(=CC[C@@H]4[C@@]5(C)CC[C@H](O)C(C)(C)[C@@H]5CC[C@]43C)[C@@H]2C1 [OA, Oleanolic acid]
[5]
  dependence of antidepressant-like effect on MAO activity: independent of MAO activity
  effect of PCPA, AMPT, NAN, PRAZ and WAY100635 on antidepressant-like effect: blockade

## COC(=O)/C=C/C(=O)O[C@H]1CC[C@]2(C)[C@H]3CC=C4[C@@H]5CC(C)(C)CC[C@]5(C(=O)O)CC[C@@]4(C)[C@]3(C)CC[C@H]2C1(C)C [D3, Oleanolic acid methyl fumarate]
Mice [3]; 5, 10, 20 mg/kg p.o., ANOVA
  immobility time in the FS test: did not elicit significant effect
  swimming time in the FS test: did not elicit significant effect
Mice [4]; 10 mg/kg p.o., vs vehicle
  number of grooming in the OF: reduction
Mice [4]; 20 mg/kg p.o., vs vehicle
  freezing time in the OF: increase
  time spent at the centre of the OF: increase
Mice [4]
  other parameters of the OF test: not altered

## CCCN(CCC)C1CCc2cccc(O)c2C1 (single isomer, unassigned; (+)) [(+) 8-OH-DPAT, 8-OH-DPAT]
5-HT1A receptor
  EC50: 158 nM
  Emax: 94 ± 2%
